We go through 1 compound from patent US20030027799A1, “Methods of treating cancer using a combination of drugs” (priority 2001, published 2003).

The nature of series [1]: Dose escalation study of β-L-OddC and cisplatin in cancer patients: dose limiting toxicity, maximum tolerated dose. The class given is in vivo. Conditions: β-L-OddC in combination with cisplatin 50 mg/m^2, administered every four weeks.
Text: The patients selected were adult patients with solid tumours that were refractory to standard therapies. […] They had adequate bone marrow, renal and hepatic function. There were 33 patients treated. Sixteen were male patients and seventeen were female. Twenty patients had colorectal cancer. Two patients had melanoma. One patient each had gastric cancer, islet cell cancer of the pancreas, non-small lung cancer (NSCLC), renal cancer, cervical cancer, breast cancer, ovarian cancer, squamous cell cancer of the pelvis, liver cancer, abdominal cancer and penile cancer. […] The terms LP and HP refer to lightly pre-treated and heavily pre-treated patient status. The term DLT refers to Dose limiting Toxicity.
Series [2] relates to various forms of cancers (e.g. solid tumours, adult leukemia and lymphomas). The note with it: Weitman 2000, Giles 2001, Gourdeau 2001; cited from earlier work.

Consider `Nc1ccn([C@@H]2CO[C@H](CO)O2)c(=O)n1` [β-L-OddC, (−)-β-L-Dioxolane-Cytidine], for which the “recommended dose for heavily pre-treated patients” value in series [1] worked out at 4.8 mg/m^2. Moreover, the “activity in the treatment of various forms of cancers” value in series [2] was “potent activity”.
